Experimental data taken from US9662303B2, “Composition and method for treating cancer” (PG-Pharma, LLC, priority 2006, dated 2017).
pIC50: −log10 of the molar value. Read-outs that look alike come from different tables or passages of the source.

Legend:
[1] = test system: human SH-SY5Y neuroblatsoma cells; experiment: Anti-proliferation/cytotoxic activity of DTS and DTS-BSA complex on SH-SY5Y cells; assay type: cell-based; settings: for Percentage anti-proliferation activity: SH-SY5Y
Description: 3. […] 4. […] See Williams et al., (2004) West Indian Medical Journal 53 (4) pp. 208-219 for the preparation of cell culture medium and assessment of anti-proliferation/cytotoxic activity on the human SH-SY5Y neuroblatsoma cells (12); the previous reference is hereby incorporated by reference in its entirety. A summary of the results from an experiment involving the above synthesis method were as follows: […]

[2] = Spectrophotometric absorbance binding experiments on pure tyrosine and phenylalanine; settings: room temperature
Description: Here is an outline of these experiments:
1. A plot of Absorbance (nm) with time (mins) of the interaction with tyrosine and DTS gives a normal distribution (Gaussian) with the highest optimum at room temperature.
2. As temperature is increased there is a lowering of the optimum on the graph until a straight line is created.
4. Phenylalanine, which is an aromatic amino acid, gives a straight line at room temperature with DTS, while DTS and tyrosine give a Gaussian distribution; the height of the curve is a function of the ratio of the DTS used.

[3] = test system: mice; experiment: Toxicity to mice; assay type: in vivo; settings: up to 30 mg/kg body weight
Protocol: In addition, concentration of up to 30 mg/kg body weigh was not toxic to mice. DTS seems to activate the bone marrow at 10 mg/kg body weight since granulocytes differential count was increased by 50% (5).

[4] = test system: Peyer's patches; experiment: Effect on Peyer's patches; settings: in vivo
Description: The manipulation of various homing factors e.g. L-selectin-mAb LM1-3 and addressin-mAdCAM-1 and integrins such as alpha4beta7 as therapeutic targets on Peyer's patches dendritic cells is a rapidly expanding field in drug development against intestinal bowel diseases (IBD) e.g. colitis, colorectal carcinoma and Chrohn's disease (20;21). DTS caused an enlargement in Peyer's patches possible by an activation of cell proliferation. Thus, based on this finding we hereby proposed that the effect of DTS on the Peyer's patches should be elucidated with the hope of developing drugs against IBD.

[5] = test system: immune system; experiment: Stimulation of the immune system in mice; assay type: in vivo; settings: 11 mg/kg body weight
Protocol: The DTS-albumin formulation of the present invention can also be administered to a patient with a formulation dosage that is predetermined based upon data specific to that patient. For example, weight, metabolic factors, genetic factors, etc. can contribute to varying predetermined dosage amounts that are used to prescribe the specific predetermined dosage to the patient. Preferably the formulation dosage is between about 0.023 mg/kg and about 2.3 mg/kg body weight. […] The DTS-BSA complex was active at 0.5 ng/mL in vitro dose, a ratio of about 480. Thus, 11 divided by 480 is about 0.023 mg/Kg body weight (minimum). Similarly, the maximum is about 2.3 mg/Kg body weight. If we assumed that the maximum weigh of a human to be treated with the ATS-albumin complex Is 70 Kg, then the upper limit would be […]=1.61 mg/70 kg body weight.

[6] = test system: SH-SY5Y neuroblastoma; settings: cited from earlier work
[7] = test system: MCF-7 mammary carcinoma; settings: cited from earlier work
[8] = test system: IPC-melanoma; settings: ref (9), cited from earlier work
[9] = test system: A549; settings: ref (9); cited from earlier work
[10] = test system: A637 primary bladder carcinoma; settings: ref (9); cited from earlier work
[11] = test system: Jurkat leukaemia; settings: ref (10); cited from earlier work
[12] = test system: ovarian A2780; settings: ref (10); cited from earlier work
[13] = test system: ovarian OVCAR4; settings: ref (10); cited from earlier work
[14] = test system: fibrosarcoma HT1080; settings: ref (10); cited from earlier work
[15] = test system: non-small cell lung cancer H460; settings: ref (10); cited from earlier work
[16] = test system: breast M231; settings: ref (10); cited from earlier work
[17] = test system: adenocarcinoma HeLa; settings: ref (10); cited from earlier work
[18] = test system: human TE-671 sarcoma cell line; settings: 0.56 μM, ref (9); cited from earlier work
[19] = target: mitogen-activated protein kinases phosphatase 1 (MKP-1) (Homo sapiens, UniProt P28562); settings: in vitro; ref (12); cited from earlier work
[20] = target: T1, Bovine Serum Albumin (BSA) (Bos taurus, UniProt P02769); settings: 500 ng/mL (0.5 μg/mL), pH 6.0; ref (11); cited from earlier work
[21] = target: T1, Bovine Serum Albumin (BSA); settings: personal communication; cited from earlier work
[22] = test system: MAPKinase (erk 1 and erk 2); settings: induced by basic fibroblast growth factor (bFGF); 1.0 μM; refs (7;11); cited from earlier work
[23] = test system: human fibroblast (HOFA) cell line; settings: over seven days; ref (9); cited from earlier work
[24] = test system: bone marrow; settings: cited from earlier work
[25] = test system: Th-1 and Th-2 cytokines; settings: Human Mixed Lymphocytes Responses, CD3 dependent activation, cited from earlier work
[26] = test system: thymus; settings: old mice; refs (5;11); cited from earlier work
[27] = test system: cadherin-5; settings: human SH-SY5YTRK-A neuroblastoma cells pre-treated with NgF; ref (11); cited from earlier work
[28] = test system: Erythrocytes (red blood cells, RBCs); settings: RBCs separated from WBCs, in buffer, concentrations higher than those effective on cancer cells; refs (11;32); cited from earlier work
[29] = test system: Starfish embryos; settings: ref (11); cited from earlier work

T1 sequence (P02769 25-607): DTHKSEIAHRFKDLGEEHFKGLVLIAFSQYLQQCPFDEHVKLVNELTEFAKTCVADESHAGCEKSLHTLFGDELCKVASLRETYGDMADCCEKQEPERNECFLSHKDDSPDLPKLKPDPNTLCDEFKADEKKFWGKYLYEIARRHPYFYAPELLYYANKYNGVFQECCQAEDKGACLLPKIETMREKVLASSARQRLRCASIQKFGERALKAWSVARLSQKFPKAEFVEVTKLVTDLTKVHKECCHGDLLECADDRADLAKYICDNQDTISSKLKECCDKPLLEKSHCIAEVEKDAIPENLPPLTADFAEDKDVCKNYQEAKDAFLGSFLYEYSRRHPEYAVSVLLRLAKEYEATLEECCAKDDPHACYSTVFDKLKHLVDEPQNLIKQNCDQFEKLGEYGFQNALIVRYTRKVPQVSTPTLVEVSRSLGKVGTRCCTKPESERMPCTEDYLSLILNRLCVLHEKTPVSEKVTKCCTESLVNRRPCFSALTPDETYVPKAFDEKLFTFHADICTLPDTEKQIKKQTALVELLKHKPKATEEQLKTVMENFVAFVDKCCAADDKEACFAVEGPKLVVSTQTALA
Sequence of mitogen-activated protein kinases phosphatase 1 (MKP-1) (P28562 whole entry, species assumed): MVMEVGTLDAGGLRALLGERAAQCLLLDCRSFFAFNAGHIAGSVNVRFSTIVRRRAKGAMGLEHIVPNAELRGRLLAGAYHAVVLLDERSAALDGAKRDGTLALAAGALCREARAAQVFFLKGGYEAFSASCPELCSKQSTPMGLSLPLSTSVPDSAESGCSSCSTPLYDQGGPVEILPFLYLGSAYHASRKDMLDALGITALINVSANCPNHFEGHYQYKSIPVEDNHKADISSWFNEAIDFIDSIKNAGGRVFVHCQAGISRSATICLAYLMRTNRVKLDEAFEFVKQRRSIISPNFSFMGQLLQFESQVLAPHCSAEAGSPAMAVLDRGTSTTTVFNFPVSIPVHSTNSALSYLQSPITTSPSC

Compound: c1ccc(CSSSCc2ccccc2)cc1 [DTS, dibenzyl trisulphide]
- effective in vitro dose ([1]; DTS alone, in vitro, cell system not stated): 240 ng/mL
- Percentage anti-proliferation activity ([1]; DTS at 39 ng/mL (No BSA)): 1.68%
- Percentage anti-proliferation activity ([1]; DTS at 78 ng/mL (No BSA)): 38.22%
- Percentage anti-proliferation activity ([1]; DTS at 1.25 μg/mL (No BSA)): 93.00%
- binding to aromatic amino acids (absorbance) [2]: binds only to tyrosine
- toxicity to mice [3]: not toxic
- Peyer's patches size [4]: enlargement
- effect on the immune system [5]: stimulated the immune system
- enhancement of cytotoxic action by complexing DTS to Bovine Serum Albumin ([6]; SH-SY5Y in vitro, refs (11;12)): 70 fold
- pIC50 ([6]; SH-SY5Y neuroblastoma, ref (9)): 6.37
- pIC50 ([7]; ref (9)): 5.65
- pIC50 ([7]; ref (10)): 5.18
- nuclear morphology (mitotic catastrophe) ([8]; IPC-melanoma cells exposed to 1.0 μM): nuclear fragmentation
- pIC50 ([8]; IPC-melanoma): 5.54
- pIC50 [9]: 4.80
- pIC50 [10]: 4.72
- pIC50 [11]: 6.46
- pIC50 [12]: 6.40
- pIC50 [13]: 5.85
- pIC50 [14]: 5.72
- pIC50 [15]: 5.29
- pIC50 [16]: 5.62
- pIC50 [17]: 5.60
- anti-proliferation/cytotoxic activity [18]: 44.67%
- binding of MKP-1 to its substrate OMFP [19]: enhance
- protection of BSA from denaturation [20]: 50.83%
- binding of glucose to BSA [21]: inhibit
- hyperphosphorylation of MAPKinase (erk 1 and erk 2) signalling [22]: 30%
- toxicity to human fibroblast (HOFA) cell line [23]: not to be toxic
- increase of granulocytes differential count ([24]; 10 mg/kg body weight, ref (5)): 50%
- production of granulocytes and erythrocytes ([24]; refs (5;11)): increased
- Th-2 cytokines such as IL-4 [25]: up-regulated
- Th-1 cytokines ([25]; ref (11)): down regulates
- thymic weight [26]: increase
- expression of cadherin-5 [27]: up-regulate
- effect on erythrocytes [28]: cell-cell attraction with morphological changes without lysis
- effect on protein biosynthesis [29]: did not have any effect
